Data from US7285555B2, “6-aryl-7-halo-imidazo[1,2-a]pyrimidines as anticancer agents” (Wyeth Holdings Corporation, priority 2003, dated 2007).

Columns and labels:
MAP-rich tubulin = test: Tubulin polymerization test procedure with MAP-rich tubulin; type: biochemical, bovine; conditions: MAP-rich tubulin with 1 mM GTP, compound 0.3 μM, at 20 min
Method: (§1) Medium is RPMI-1640 with L-glutamine, supplemented with 10% heat-inactivated fetal calf serum, 100 units/mL penicillin, and 100 μg/mL streptomycin (Gibco, Grand Island, N.Y.). Microtubule-associated protein (MAP)-rich tubulin, containing about 70% tubulin and 30% MAPs (#ML113), and highly purified tubulin (>99% pure, #TL238), both from bovine brain, are obtained from Cytoskeleton, Inc., Denver, Colo. PEM buffer (80 mM piperazine-N,N′-bis[2-ethanesulfonic acid], pH 6.9, 1 mM ethylene glycol-bis(β-aminoethyl ether)-N,N,N′,N′-tetraacetic acid, 1 mM magnesium chloride) and guanosine 5′-triphosphate (GTP) are also obtained from Cytoskeleton. [^3H]paclitaxel, specific activity 14.7 Ci/mmol, is purchased from Moravek Biochemicals (Brea, Calif.). [^3H]vinblastine, specific activity 9.60 Ci/mmol and MicroSpin G-50 columns are obtained from Amersham Biosciences (Piscataway, N.J.). […] Other reagents are obtained from Sigma (St. Louis, Mo.).
MAP-rich tubulin is dissolved in ice-cold PEM buffer containing 1 mM GTP (GPEM buffer) at a concentration of 1.3 mg/mL. The solution is centrifuged at top speed in an Eppendorf model 5415C microcentrifuge (Brinkmann Instruments, Westbury, N.Y.) for 10 min at 40 immediately before use. The tubulin solution is added to wells of a ½-area 96-well plate (Costar No. 3696, Corning, Inc., Corning, N.Y.) already containing the compounds of interest. Each compound is tested in duplicate at a final concentration of 0.3 μM in a volume of 110 μL per well. The final DMSO concentration in all wells is 0.3%. Control reactions, which receive compound solvent only, are done in quadruplicate. The plate is put in a SpectraMax Plus plate reader (Molecular Devices Corp. Sunnyvale, Calif.) thermostated at 240 and the absorbance of each well at 340 nm, a measure of the appearance of turbidity due to tubulin polymer formation, is determined every minute for 60 minutes. The absorbance at time 0 for each well is subtracted from each of the subsequent absorbance readings for that well, and then the duplicates are averaged.
In this assay, control reactions with MAP-rich tubulin show an S-shaped absorbance profile characterized by three phases: first, a lag phase during which no change in absorbance occurs; second, a polymerization phase in which absorbance increases; and third, a plateau phase in which absorbance has reached a maximum and little or no further change occurs. Polymerization enhancers such as paclitaxel and docetaxel shorten or eliminate the lag phase, increase the rate of the polymerization phase, and often increase the height of the plateau. […] This has been expressed quantitatively in Table 6 by dividing the mean A340 of each sample at 20 min by the mean A340 of the control at 20 min to give a fold enhancement over control. […]

pure tubulin = test: Tubulin polymerization test procedure with pure tubulin; type: biochemical, bovine; conditions: for polymerization of pure tubulin without GTP (in words): pure tubulin without added GTP
Method: as §1
The procedure with pure tubulin is similar except for the following changes. […] The supernatant after centrifugation is dispensed to a ½-area 96-well plate already containing compounds. Each compound is tested in duplicate at a final concentration of 24.3 μM. The plate reader μs thermostated at 35°.

[1] = system: highly purified tubulin (tubulin heterodimer); test: Competitive binding test procedure, [3H]vinblastine; parameters: species or system bovine; conditions: competitor 100 μM, [3H]vinblastine 100 nM
Method: as §1
(§2) The binding of examples of this invention to highly purified tubulin is studied by competitive inhibition methods. […] To study possible competition at the taxane site, on the other hand, polymerized tubulin (microtubules) is used because paclitaxel binds preferentially to microtubules.
(§3) Highly purified tubulin is dissolved in PEM buffer without GTP and used at a final concentration of 1.0 to 1.3 mg/ml (10 to 13 μM). […] These solutions are incubated at 240 for 1 hr and then applied to MicroSpin G-50 columns which are centrifuged for 2 min at 3000 rpm in an Eppendorf 5415C microfuge. An aliquot of each column effluent (containing tubulin and bound radioligand) is mixed with scintillation fluid and counted in a liquid scintillation spectrometer. […] Quadruplicates are averaged, and the ability of the competitor to inhibit the binding of the radioligand is expressed as a percentage of control binding in the absence of any competitor.

[2] = system: highly purified tubulin (tubulin heterodimer); test: Competitive binding test procedure, [3H]colchicine; parameters: species or system bovine; conditions: competitor 100 μM, [3H]colchicine 50 nM
Method: as §1, §2, §3

[3] = system: polymerized tubulin (microtubules); test: Competitive binding test procedure, [3H]paclitaxel; parameters: species or system bovine; conditions: [3H]paclitaxel 2.1 μM
Method: as §1, §2
For competition with [^3H]paclitaxel, highly purified tubulin is dissolved in PEM buffer containing 0.75 M glutamate and 25 μM dideoxy-GTP; final protein concentration is 0.25 to 0.35 mg/mL (2.5 to 3.5 μM). These conditions foster the rapid formation of short, stable microtubule polymers (Hamel, E., del Campo, A. A., and Lin, C. M. Stability of tubulin polymers formed with dideoxyguanosine nucleotides in the presence and absence of microtubule-associated proteins. J. Biol. Chem., 259: 2501-2508, 1984). […] The reactions are then centrifuged at top speed in an Eppendorf 5415C microfuge for 20 min at room temperature in order to pellet the microtubule protein. Triplicate aliquots of each supernatant are mixed with scintillation fluid and counted in a liquid scintillation spectrometer. From the amount of radioactivity in the supernatants and the measured total starting radioactivity, the amount of [^3H]paclitaxel bound to pelleted microtubule protein is calculated. The ability of each competitor to inhibit radioligand binding to pelleted protein is expressed as a percent of controls without any competitor.

CN(C)CCCOc1cc(F)c(-c2c(Cl)nc3nccn3c2C2CCCCCC2)c(F)c1 [Example 6, 3-[4-(7-Chloro-5-cycloheptylimidazo[1,2-a]pyrimidin-6-yl)-3,5-difluorophenoxy]-N,N-dimethylpropan-1-amine]
A340 Compound / A340 Control (fold enhancement over control) (MAP-rich tubulin): 1.7 | polymerization of pure tubulin without GTP (in words) (pure tubulin): induces polymerization | A340 at 0 min (pure tubulin; pure tubulin, no added GTP, compound 24.3 μM, 0 min): 0 | A340 at 5 min (pure tubulin; pure tubulin, no added GTP, compound 24.3 μM, 5 min): 0.15 | A340 at 10 min (pure tubulin; pure tubulin, no added GTP, compound 24.3 μM, 10 min): 0.19 | A340 at 15 min (pure tubulin; pure tubulin, no added GTP, compound 24.3 μM, 15 min): 0.19 | A340 at 20 min (pure tubulin; pure tubulin, no added GTP, compound 24.3 μM, 20 min): 0.19 | [3H]Vinblastine binding, Mean, percent of binding to control without competitor [1]: 17% | [3H]Colchicine binding, Mean, percent of binding to control without competitor [2]: 84% | [3H]Colchicine binding, Mean, percent of binding to control without competitor ([2]; listed as example 6): does not inhibit | [3H]Paclitaxel binding, Mean, percent of binding to control without competitor ([3]; competitor 20 μM): 92% | [3H]Paclitaxel binding, Mean, percent of binding to control without competitor ([3]; competitor 20 μM, listed as example 6): does not inhibit

CC(=O)O[C@H]1C(=O)[C@@]2(C)[C@H]([C@H](OC(=O)c3ccccc3)[C@]3(O)C[C@H](OC(=O)[C@H](O)[C@@H](NC(=O)c4ccccc4)c4ccccc4)C(C)=C1C3(C)C)[C@]1(OC(C)=O)CO[C@@H]1C[C@@H]2O [Paclitaxel, reference compound]
A340 Compound / A340 Control (fold enhancement over control) (MAP-rich tubulin): 1.8 | polymerization of pure tubulin without GTP (in words) (pure tubulin): able to induce polymerization | [3H]Vinblastine binding, Mean, percent of binding to control without competitor [1]: 92% | [3H]Colchicine binding, Mean, percent of binding to control without competitor [2]: 93% | [3H]Paclitaxel binding, Mean, percent of binding to control without competitor ([3]; competitor unlabeled paclitaxel 5 μM): 35%
